Several values for one entry are separate records, joined by “and”; a condition that tells them apart may be missing. Equal values may be shown once.
Assays:
[1] = target: T1, murine PPARγ (mPPARγ) (Mus musculus, UniProt P37238); experiment: Gal4-PPARγ/UAS-LUC reporter assay in HEK293T cells; format: cell-based; parameters: key to Gal4-PPARγ/UAS-LUC reporter activity, Fig 1B replicates: luciferase activity normalized to TK reporter signal
T1 construct: host or cells: HEK293T
Method: Briefly, HEK293T cells were seeded in 24-well plates at 1 × 10^5 cells/well. […] Luciferase activity was measured using Luc-Pair™ Duo-Luciferase HS Assay Kit (cat. no. LF600, Promega) and normalized with the TK reporter signal.

[2] = target: T2, mPPARγ (Mus musculus, UniProt P37238); experiment: Co-immunoprecipitation in mouse white adipose tissue; format: binding; conditions: epididymal white adipose tissue of Ptgr2+/+ and Ptgr2−/− mice
T2 construct: from tissue; host or cells: perigonadal (epididymal) white adipose tissue of Ptgr2+/+ and Ptgr2-/- mice
From the text: Lysates from the perigonadal fat of Ptgr2^+/+ and Ptgr2^−/− mice were immunoprecipitated with a mouse anti-15-keto-PGE2-cysteine-BSA antibody (1:1000) and then immunoblotted with a rat anti-PPARγ antibody (1:1000, cat. no. sc-7273, Santa Cruz Biotechnology).

[3] = target: T3, Myc-DDK-mPPARγ C313A (Mus musculus, UniProt P37238, C313A); experiment: Reciprocal co-immunoprecipitation in HEK293T cells, mPPARγ C313A; format: binding, murine; conditions: 15-keto-PGE2 treated
T3 construct: host or cells: HEK293T
Method: HEK293T cells were transfected with murin PPARγ (mPPARγ) and mPPARγ C313A plasmids for immunoprecipitation, which are Myc-DDK-tagged (OriGene, USA). […] According to the manufacturer’s protocol, proteins were immunoprecipitated using Anti-FLAG® M2 Magnetic Beads (2.5 mg/ml; cat. no. F1804, Sigma-Aldrich). Subsequently, the eluted proteins were separated by SDS-PAGE and subjected to immunoblot analysis. Following separation by SDS-PAGE, proteins were stained with Coomassie blue and SYPRO-Ruby stain. The protein bands of interest were cut out for in-gel tryptic digestion followed by C18 Zip-Tip clean-up (Millipore, USA). For proteomic shotgun identifications, nanoLC-nanoESI-MS/MS analysis was performed on a nanoAcquity system (Waters, USA) connected to the LTQ Orbitrap Velos hybrid MS (Thermo Electron, USA) equipped with a PicoView nanospray interface (New Objective, USA). Samples were loaded onto a C18 BEH column (75 μm × 25 cm length, 130 Å, 1.7 μm particle size) (Waters, USA) and separated by a segmented gradient form in 60 min from 5% to 40% acetonitrile (with 0.1% formic acid) at a constant flow rate of 300 nL/min with a column temperature of 35 °C. The mass spectrometer was operated in the data-dependent mode. […] Protein identification and modification were analyzed using Mascot Daemon (Matrix Science Inc., Chicago). […]

[4] = target: hPTGR2 (Homo sapiens, UniProt Q8N8N7); experiment: Conversion of 15-keto-PGE2 by recombinant human PTGR2 protein; format: biochemical; parameters: made in house; conditions: incubated with recombinant human PTGR2 protein
[5] = Necropsy, gross and histopathological examination; format: in vivo, mouse; parameters: key to Brain, Forebrain / Brain, Cerebellum and Pons / Heart: Vacuolation, cardiomyocyte / Lung: Alveolar epithelium hyperplasia / Lung: Chronic inflammation, focal / Liver: Hepatocellular adenoma, multiple / Brain, Midbrain / Kidney: Hyaline cast, renal tubule / Kidney: Cytoplasmic vacuolation, renal tubule / Kidney: Mineralization, renal tubule / Pancreas: Atrophy and accumulation adipocyte, acinar cell / Pancreas: Pancreatic islets hyperplasia / Pancreas: Lymphocytic infiltration, perivascular / Brown fat: Increased adipocyte size / White fat (Perigonadal fat) / Bone marrow, Sternum/ Femur / Bone marrow: Mineralization, focal / Bone marrow: Cellularity, decreased, bone marrow: + = Present; - =Not present; X=Not remarkable lesion; 1 = minimal (< 1%); 2 = mild (1–25%); 3 = moderate (26–50%); 4 = moderately severe (51–75%); 5 = severe/high (76–100%); conditions: for overall toxicity / pathology conclusion: mice treated 26 weeks
Method: The animals were sacrificed by exsanguination under anesthesia with pure carbon dioxide.
At necropsy, tissue samples of the submitted mice were collected and preserved in 10% neutral buffered formalin. The required tissues/organs of animals were trimmed, processed, and embedded in paraffin. Sections 3–5 μm in thickness were cut and put on slides for hematoxylin and eosin (H&E) staining. The histopathological evaluation was performed on the submitted tissues. Severity of lesions was graded according to the methods described (Shackelford et al, [2002]). Degrees of lesions were graded histopathologically from one to five depending on severity (1 = minimal; 2 = slight; 3 = moderate; 4 = moderately severe; 5 = severe/high).

[6] = Test group, one animal, 26 weeks
[7] = Test group, one value per animal, 26 weeks

Sequence of hPTGR2 (Q8N8N7 whole entry): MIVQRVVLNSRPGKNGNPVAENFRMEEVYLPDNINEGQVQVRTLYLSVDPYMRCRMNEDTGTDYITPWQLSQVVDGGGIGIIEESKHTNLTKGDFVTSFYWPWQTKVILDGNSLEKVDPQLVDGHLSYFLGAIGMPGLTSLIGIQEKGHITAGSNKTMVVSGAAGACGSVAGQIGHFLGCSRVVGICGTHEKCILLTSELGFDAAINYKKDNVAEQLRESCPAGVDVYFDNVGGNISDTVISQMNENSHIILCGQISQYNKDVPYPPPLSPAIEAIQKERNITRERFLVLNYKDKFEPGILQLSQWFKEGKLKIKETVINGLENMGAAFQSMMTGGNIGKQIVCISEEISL

For `CCCCCC(=O)/C=C/[C@H]1[C@H](O)CC(=O)[C@@H]1C/C=C\CCCC(=O)O` [15-keto-PGE2, 15-keto-prostaglandin E2], the “Gal4-PPARγ/UAS-LUC reporter activity, Fig 1B replicates” value (“Gal4-PPARγ/UAS-LUC reporter activity” for short) ([1]; 15kPGE2 5μM) was 2.161 and 2.101 and 1.961, the “Gal4-PPARγ/UAS-LUC reporter activity” value ([1]; 15kPGE2 10μM) was 2.283 and 3.108 and 3.049 and the “Gal4-PPARγ/UAS-LUC reporter activity” value ([1]; 15kPGE2 30μM) was 5.273 and 6.22 and 5.349. The “transactivation activity of PPARγ (Gal4-PPARγ/UAS-LUC reporter)” value ([1]; HEK293T cells) was “enhanced the transactivation activity of PPARγ in a dose-dependent manner”, the “co-immunoprecipitation of mPPARγ with anti-15-keto-PGE2-cysteine-BSA antibody in fat tissue” value [2] was “confirming the covalent binding of mPPARγ to 15-keto-PGE2” and the “co-immunoprecipitation with 15-keto-PGE2-cysteine antibody, mPPARγ C313A” value [3] was “not in samples expressing mPPARγ with C313A mutation”. The “15-keto-PGE2 converted into 13,14-dihydro-15-keto-PGE2” value [4] was 99.83%.
With `Cc1[nH]c2nc(C(C)N3CCN(c4ccccc4)CC3)nn2c(=O)c1Cc1ccc(F)cc1` (centres unmarked) [BPRPT0245] the “Pathological examination of bone marrow, brain, heart, lung, kidney, pancreas, brown fat, perigonadal fat” value ([5]; 26 weeks, vs vehicle) was “no significant difference”, the “White fat (Perigonadal fat)” value ([5]; Test group, first two animals, 26 weeks) was “X” and the “White fat (Perigonadal fat): Inflammatory cell infiltration” value ([5]; Test group, last two animals, 26 weeks) was 1 (1 = minimal (< 1%)) and 2 (2 = mild (1–25%)). The “Bone marrow: Cellularity, decreased, bone marrow” value [5, 6] was “-”, the “Bone marrow: Infiltration, lymphocyte” value [5, 6] was 1 (1 = minimal (< 1%)) and the “Bone marrow: Mineralization, focal” value [5, 6] was “-”. For the same molecule, the “Brain, Forebrain” value ([5]; Test group, one value per animal (T1,T2,T2[sic],T4), 26 weeks) was “X”, the “Brain, Cerebellum and Pons” value [5, 7] was “X” and the “Brain, Midbrain” value [5, 7] was “X”. The “Brown fat: Increased adipocyte size” value [5, 7] was “+”, the “Heart: Inflammatory cell infiltration/Cardiomyopathy” value [5, 7] was 2 (2 = mild (1–25%)) (3×) and 1 (1 = minimal (< 1%)) and the “Heart: Vacuolation, cardiomyocyte” value [5, 7] was “- (3×) and 2 (2 = mild (1–25%))”. The “Kidney: Cytoplasmic vacuolation, renal tubule” value [5, 7] was 2 (2 = mild (1–25%)) (3×) and -, the “Kidney: Hyaline cast, renal tubule” value [5, 7] was 1 (1 = minimal (< 1%)) and - (3×) and the “Kidney: Inflammatory cell infiltration, peripelvic /perivacscular” value [5, 7] was 2 (2 = mild (1–25%)) (3×) and 1 (1 = minimal (< 1%)). For the same molecule, the “Kidney: Mineralization, renal tubule” value [5, 7] was 1 (1 = minimal (< 1%)) and - (3×), the “Kidney: Tubular degeneration/regeneration with inflammatory cell infiltration” value [5, 7] was 2 (2 = mild (1–25%)) and the “Liver: Hepatocellular adenoma, multiple” value [5, 7] was “-”. The “Liver: Inflammation” value [5, 7] was 1 (1 = minimal (< 1%)) (2×) and 2 (2 = mild (1–25%)) (2×), the “Liver: Lymphocytic cell infiltration, perivascular” value [5, 7] was 1 (1 = minimal (< 1%)) (2×) and 2 (2 = mild (1–25%)) (2×) and the “Liver: Steatosis” value [5, 7] was 2 (2 = mild (1–25%)) (2×) and 4 (4 = moderately severe (51–75%)) (2×). The “Lung: Alveolar epithelium hyperplasia” value [5, 7] was 2 (2 = mild (1–25%)) and - (3×), the “Lung: Chronic inflammation, focal” value [5, 7] was 1 (1 = minimal (< 1%)) (2×) and - (2×) and the “Lung: Inflammatory cell infiltration, perivascular” value [5, 7] was 1 (1 = minimal (< 1%)) (2×) and 2 (2 = mild (1–25%)) (2×). The “Pancreas: Atrophy and accumulation adipocyte, acinar cell” value [5, 7] was “-”, the “Pancreas: Fat infiltration, exocrine” value [5, 7] was 2 (2 = mild (1–25%)) (2×) and 1 (1 = minimal (< 1%)) (2×) and the “Pancreas: Lymphocytic infiltration, perivascular” value [5, 7] was “- (2×) and 2 (2 = mild (1–25%)) (2×)”. The “Pancreas: Pancreatic islets hyperplasia” value [5, 7] was 1 (1 = minimal (< 1%)) (2×) and - (2×), the “Bone marrow, Sternum/ Femur” value ([5]; Test group, three animals, 26 weeks) was “X” and the “overall toxicity / pathology conclusion” value [5] was “no detectable toxicity”. For the same molecule, the “overall toxicity / pathology conclusion” value ([5]; listed as test article) was “not related”.
